The results in this text go back to paper PMC12683216, “Using High‐Throughput Screening to Identify Crosslinking Peptides That Control Cell‐Mediated Matrix Degradation” (Advanced Healthcare Materials, 2025).

Structures are written as SMILES. Read-outs that look alike come from different tables or passages of the source. Where a SMILES comes first, the peptide text is derived from it. [ ]: non-standard residue; d: D form. βAla = NCCC(=O)O

Data set [1] deals with hMSCs. The data set is described as follows: Soluble peptide degradation, Cells condition (LC-MS). The data set is classed as in vitro ADME, human. In a few lines:
(§1)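 Pooled synthetic TAILS-derived peptides added to hUVEC or hMSC cultures (Cells) or cell-free conditioned media (Media); MMP-14 inhibitor NSC 405 020 at 10 µM final. Samples taken at 0 and 24 h, acidified, analysed by LC-MS; peak areas normalised to 50 µM βFβA6 internal standard, 24 h/0 h gives fraction remaining.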

The subject of data set [2] is hUVECs. Described as above. The data set is classed as in vitro ADME, human. The following applies: 24 h, LC-MS. An outline of the steps:
as §1

Test in data set [3]: as above
The class given is in vitro ADME, human. The settings on record: human, 24 h, LC-MS; for remaining at 24 h: Figure 2B heatmap, ratio to βFβA6 internal standard, 24 h / 0 h, N = 5. In a few lines: as §1

In data set [4] the test system is MMP-14. Described as above. The data set is classed as in vitro ADME, human. The following applies: human, with NSC 405 020 (MMP-14 inhibitor); Figure 3C; 50 µM peptide, media on hUVECs with MMP-14 inhibitor NSC 405 020 10 µM; 24 h; LC-MS; N = 6; read-out: Fraction of peptide remaining after 24 hours: hUVEC +Inhibitor. An outline of the steps: as §1
Data set [5] can be described thus: Soluble peptide degradation, Media condition (cell-conditioned media, LC-MS). The data set is classed as in vitro ADME, human. The following applies: 24 h, LC-MS. An outline of the steps:
(§2)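 Pooled peptide library added to medium conditioned by hUVECs or hMSCs with cells removed. Fraction remaining after 24 h measured by LC-MS (positive-ion ESI). Value is peptide peak area relative to 50 µM non-degradable βFβA6 internal standard.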

Test in data set [6]: as above
The data set is classed as in vitro ADME, human. The following applies: 24 h, LC-MS. An outline of the steps:
as §2
The source holds these as a separate data set.

For data set [7], the system named is T1, MMP-14.
T1 construct: purchased antibodies.com
The data set is described as follows: Peptide degradation with added exogenous recombinant MMP-14 (LC-MS). The following applies: human, Figure 7 study, recombinant MMP-14 0.5 nM, 24 h, LC-MS, N = 3 with technical triplicates. The data set is classed as in vitro ADME. As to the method: To verify that MMP‐14 can degrade the KLVAD‐LM and PanMMP peptides, recombinant MMP‐14 was added to the different peptides, both in PBS and in the Cell and Media culture conditions (Figure 7 ). Peptides were incubated under three conditions: in fresh cell culture media (“Blank”), in media with cells present (“Cells”), and in cell‐conditioned media (“Media”). This was done for both hMSCs and hUVECs, and was also done with and without the addition of exogenous MMP.
The extent of peptide degradation was quantified for samples both with and without the addition of exogenous MMP‐14. […] Error bars indicate ± standard deviation, N = 3 with technical triplicates.
hUVECs (75000 per well) or hMSCs (36000 per well) were seeded into a 48 well plate, and 500 µL media was added to the wells. […] The peptide libraries were dissolved at a stock solution of 10 mM total peptide content. For libraries containing 38 peptides, 95 µL of the stock solution was added to each well; for libraries with 19 peptides, 47.5 µL was added to each well, and media was taken at 0 and 24 h. Add 4 µL of acetic acid to all collected media in the LC‐MS plates and store them in a −80 °C freezer to prevent further proteolytic degradation. From each sample, 10 µL of crude solution was introduced by the LC‐MS through a Thermo Scientific Vanquish LC System (Thermo Fisher Scientific), which outputted to a Thermo Scientific LTQ XL Linear Ion Trap Mass Spectrometer (Thermo Fisher Scientific). The sampled mixture was trapped on a column (ProntoSIL C18 AQ, 120 Å, 3 µm, 2.0 x 50 mm HPLC Column, PN 0502F184PS030, MAC‐MOD Analytical Inc.). The samples were loaded onto the column with a solvent containing acetonitrile/water, 5:95 (v/v) containing 1% acetic acid at a flow rate of 300 µL min^−1 and held for 1 min. The sample was then eluted from the column with a linear gradient of 5–40% Solvent B (1% acetic acid in acetonitrile) at the same flow rate for 5 min. This was followed by a 1 min ramp up to 100% Solvent B, where it was re‐equilibrated with Solvent A (1% acetic acid) to 5% solvent B over the course of 1 min and held there for 2 min. The column temperature was kept at a constant 29 °C, and the mass spectrometer was operated in positive ion mode. Using a Heated ESI, the Source Voltage was set to 4.1 kV, and the capillary temperature was 350 °C. For non‐library degradation studies, 2.5 µL of 10 mM peptide stock solution for each peptide was added.
To assess the activity of the conditioned media, the media were divided into two equal portions. One portion was used for a standard degradation study, while the other was cultured for an additional 24 h before the PanMMP and KLVADLMASAE were added. After 24 h of incubation, the media were collected for further analysis. To assess the impact of recombinant MMP‐14 on PanMMP and KLVADLMASAE, recombinant MMP‐14 (antibodies.com) was dissolved in the media at a concentration of 0.5 nM. The remaining steps followed the standard degradation study protocol.
For all degradation studies using soluble peptides, a non‐proteolytically degradable NH2‐βFβAβAβAβAβAβA‐amide (βFβA6) peptide, where βF is β‐phenylalanine and βA is β‐alanine, was added at a 50 µM concentration and used as an internal standard. Peptide degradation ratios were measured by LC‐MS and analyzed by Xcalibur. The relative concentrations of the peptide were calculated by the ratio of the peak area of the peptide and the peak area of βFβA6.

Setting [8] is: Figure 3C, 50 µM soluble peptide, N = 6.

Regarding `CC[C@H](C)[C@H](NC(=O)CNC(=O)[C@H](CCC(N)=O)NC(=O)[C@@H]1CCCN1C(=O)CNC(=O)CCNC(C)=O)C(=O)N[C@@H](Cc1c[nH]c2ccccc12)C(=O)NCC(=O)N[C@@H](CCC(N)=O)C(=O)NCCC(N)=O` [PanMMP, reference compound] (Ac-[βAla]GPQGIWGQ[βAla]-NH2), in data set [1] (24 h, 50 µM), the “peptide remaining, Cells + MMP-14 inhibitor, hMSCs” value is given as 78%. Besides, the “Fraction of peptide remaining after 24 hours: hMSC +Inhibitor” value in data set [1] (Figure 3C, 50 µM peptide, media on hMSCs with MMP-14 inhibitor NSC 405 020 10 µM, 24 h, LC-MS, N = 6) is 0.78. Moreover, in data set [1] (Figure 3C, 50 µM soluble peptide, LC-MS, N = 6), the “peptide remaining after 24 h, Cells condition, hMSCs” value worked out at 35%. Moreover, in data set [1] (Figure 3C, individually synthesized soluble peptide, 50 µM, media on hMSCs, 24 h, LC-MS, ratio to βFβA6, N = 6), the “Fraction of peptide remaining after 24 hours: hMSC Cells” value is 0.35. Also, the “Fraction of peptide remaining after 24 hours: hUVEC Cells” value in data set [2] (Figure 3C, individually synthesized soluble peptide, 50 µM, media on hUVECs, ratio to βFβA6, N = 6) amounted to 0.77. The “degradation after 24 h, Cells + Inhibitor, cultured with hUVECs” value in data set [2] (NSC 405 020 10 µM) is listed as “greater than 2%”. Also, the share remaining at 24 h in data set [3] (hMSCs in culture with fresh media (Cells condition), pooled TAILS-derived soluble peptides (Ac-βAla N-terminus, βAla-amide C-terminus) in media on hMSCs (36000 per well, 48 well plate, 500 µL), read-out: Fraction of peptide remaining at 24 hours: hMSC Cells) turned out to be 39%; in data set [3] (hUVECs in culture with fresh media (Cells condition), pooled TAILS-derived soluble peptides in media on hUVECs (75000 per well, 48 well plate, 500 µL), read-out: Fraction of peptide remaining at 24 hours: hUVEC Cells), 69%; in data set [5] (human, Figure 2B heatmap, pooled TAILS-derived soluble peptides in 24 h hMSC-conditioned media without cells, ratio to βFβA6 internal standard, 24 h / 0 h, N = 5, read-out: Fraction of peptide remaining at 24 hours: hMSC Media), 86%; in data set [6] (human, Figure 2B heatmap, pooled TAILS-derived soluble peptides in 24 h hUVEC-conditioned media without cells, ratio to βFβA6 internal standard, 24 h / 0 h, N = 5, read-out: Fraction of peptide remaining at 24 hours: hUVEC Media), 93%. Moreover, the metabolised at 24 h in data set [3] (hMSCs in culture with fresh media (Cells condition), Figure 2B screen, hMSCs, read-out: amount of degradation in the Cells condition) amounted to 61%. Moreover, the amount remaining at 24 h, 50 µM in data set [4] stood at 95%; in data set [5] (human, hMSC-conditioned media without cells, no exogenous MMP-14, Figure 7 study, N = 3 with technical triplicates, read-out: peptide remaining in hMSC conditioned media without exogenous MMP-14) it was 85%; in data set [6] (human, hUVEC-conditioned media without cells, no exogenous MMP-14, Figure 7 study, N = 3 with technical triplicates, read-out: peptide remaining in hUVEC conditioned media without exogenous MMP-14) it was 78%; in data set [7] (read-out: peptide remaining in hMSC conditioned media with added MMP‐14), 84%; in data set [7] (read-out: peptide remaining in hUVEC conditioned media with added MMP‐14) it was 72%. For the same compound, the “peptide remaining, Media condition, hMSCs” value in data set [5] (setting [8]) was determined as 85%. Besides, the “Fraction of peptide remaining after 24 hours: hMSC Media” value in data set [5] (Figure 3C, individually synthesized soluble peptide, 50 µM, hMSC-conditioned media without cells, ratio to βFβA6, N = 6) was 0.85. In addition, the “peptide remaining, Media condition, hUVECs” value in data set [6] (setting [8]) amounted to 89%. The “Fraction of peptide remaining after 24 hours: hUVEC Media” value in data set [6] (Figure 3C, individually synthesized soluble peptide, 50 µM, hUVEC-conditioned media without cells, ratio to βFβA6, N = 6) is reported as 0.89.
